From article PMC11864979, “First-in-class ultralong-target-residence-time p38α inhibitors as a mitosis-targeted therapy for colorectal cancer” (Nature Cancer, 2025)
Where two headings read alike, the source gives them in different places.

Tests used:
Test in all cases: selectivity profiling in a panel of 340 wild-type kinases (Reaction Biology Europe)
Format in all cases: binding
[1] = molecular target: T1, 340 wild-type kinases (Homo sapiens, UniProt P06493)
T1 construct: purchased Reaction Biology Europe
T1 sequence (P06493 whole entry): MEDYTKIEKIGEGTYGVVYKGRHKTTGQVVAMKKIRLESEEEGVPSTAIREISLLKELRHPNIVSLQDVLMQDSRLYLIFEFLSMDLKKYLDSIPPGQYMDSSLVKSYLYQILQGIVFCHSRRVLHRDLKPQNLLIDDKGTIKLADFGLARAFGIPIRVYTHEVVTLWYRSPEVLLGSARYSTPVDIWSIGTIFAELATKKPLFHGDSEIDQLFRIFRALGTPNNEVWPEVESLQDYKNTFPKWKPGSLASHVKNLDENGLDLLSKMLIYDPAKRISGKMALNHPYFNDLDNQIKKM

[2] = molecular target: T2, 340 wild-type kinases (Homo sapiens, UniProt P07332)
T2 construct: purchased Reaction Biology Europe
T2 sequence (P07332 whole entry): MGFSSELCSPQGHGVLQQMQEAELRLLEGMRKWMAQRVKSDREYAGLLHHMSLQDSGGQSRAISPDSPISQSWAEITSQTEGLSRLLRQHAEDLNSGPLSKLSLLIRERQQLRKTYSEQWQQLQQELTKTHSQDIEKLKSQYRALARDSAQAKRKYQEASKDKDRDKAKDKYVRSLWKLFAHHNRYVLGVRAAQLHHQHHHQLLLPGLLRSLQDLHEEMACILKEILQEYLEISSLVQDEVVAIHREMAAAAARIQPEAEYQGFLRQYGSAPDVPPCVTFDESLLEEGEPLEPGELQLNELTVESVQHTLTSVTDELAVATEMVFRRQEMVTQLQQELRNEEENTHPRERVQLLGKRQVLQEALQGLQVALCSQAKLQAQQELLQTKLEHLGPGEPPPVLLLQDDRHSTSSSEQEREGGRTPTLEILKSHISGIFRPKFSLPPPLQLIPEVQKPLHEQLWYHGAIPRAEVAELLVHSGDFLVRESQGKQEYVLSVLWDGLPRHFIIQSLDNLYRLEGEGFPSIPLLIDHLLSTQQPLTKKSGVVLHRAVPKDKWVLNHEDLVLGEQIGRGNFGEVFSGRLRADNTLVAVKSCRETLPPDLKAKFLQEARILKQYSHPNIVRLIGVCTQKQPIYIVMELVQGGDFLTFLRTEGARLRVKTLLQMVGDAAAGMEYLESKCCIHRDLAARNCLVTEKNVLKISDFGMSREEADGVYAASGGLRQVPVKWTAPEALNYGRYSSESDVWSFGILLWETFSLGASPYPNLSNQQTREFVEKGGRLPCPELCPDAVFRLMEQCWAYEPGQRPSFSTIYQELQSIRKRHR

[3] = molecular target: T3, 340 wild-type kinases (Homo sapiens, UniProt P49761)
T3 construct: purchased Reaction Biology Europe

[4] = molecular target: T4, 340 wild-type kinases (Homo sapiens, UniProt P68400)
T4 construct: purchased Reaction Biology Europe
T4 sequence (P68400 whole entry): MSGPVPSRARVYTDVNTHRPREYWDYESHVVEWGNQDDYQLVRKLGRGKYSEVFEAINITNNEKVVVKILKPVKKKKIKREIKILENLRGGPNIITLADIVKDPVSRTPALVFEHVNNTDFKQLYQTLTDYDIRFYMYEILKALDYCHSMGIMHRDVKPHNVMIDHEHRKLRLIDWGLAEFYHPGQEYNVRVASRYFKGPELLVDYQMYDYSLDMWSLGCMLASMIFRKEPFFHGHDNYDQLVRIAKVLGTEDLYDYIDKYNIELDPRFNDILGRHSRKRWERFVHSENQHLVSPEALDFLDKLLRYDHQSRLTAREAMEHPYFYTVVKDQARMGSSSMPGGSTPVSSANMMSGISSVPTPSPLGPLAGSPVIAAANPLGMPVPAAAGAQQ

[5] = molecular target: T5, 340 wild-type kinases (Homo sapiens, UniProt Q00534)
T5 construct: purchased Reaction Biology Europe
T5 sequence (Q00534 whole entry): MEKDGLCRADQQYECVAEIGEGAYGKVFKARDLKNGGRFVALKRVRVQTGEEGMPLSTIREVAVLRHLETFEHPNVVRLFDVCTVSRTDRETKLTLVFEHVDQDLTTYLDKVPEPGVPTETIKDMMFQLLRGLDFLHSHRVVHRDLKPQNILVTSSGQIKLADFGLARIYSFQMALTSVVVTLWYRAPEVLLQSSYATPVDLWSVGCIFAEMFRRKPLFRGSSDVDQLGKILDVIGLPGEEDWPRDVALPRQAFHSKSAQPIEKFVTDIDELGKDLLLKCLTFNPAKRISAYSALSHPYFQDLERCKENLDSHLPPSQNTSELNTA

[6] = molecular target: T6, 340 wild-type kinases (Homo sapiens, UniProt Q14164)
T6 construct: purchased Reaction Biology Europe
T6 sequence (Q14164 1-716): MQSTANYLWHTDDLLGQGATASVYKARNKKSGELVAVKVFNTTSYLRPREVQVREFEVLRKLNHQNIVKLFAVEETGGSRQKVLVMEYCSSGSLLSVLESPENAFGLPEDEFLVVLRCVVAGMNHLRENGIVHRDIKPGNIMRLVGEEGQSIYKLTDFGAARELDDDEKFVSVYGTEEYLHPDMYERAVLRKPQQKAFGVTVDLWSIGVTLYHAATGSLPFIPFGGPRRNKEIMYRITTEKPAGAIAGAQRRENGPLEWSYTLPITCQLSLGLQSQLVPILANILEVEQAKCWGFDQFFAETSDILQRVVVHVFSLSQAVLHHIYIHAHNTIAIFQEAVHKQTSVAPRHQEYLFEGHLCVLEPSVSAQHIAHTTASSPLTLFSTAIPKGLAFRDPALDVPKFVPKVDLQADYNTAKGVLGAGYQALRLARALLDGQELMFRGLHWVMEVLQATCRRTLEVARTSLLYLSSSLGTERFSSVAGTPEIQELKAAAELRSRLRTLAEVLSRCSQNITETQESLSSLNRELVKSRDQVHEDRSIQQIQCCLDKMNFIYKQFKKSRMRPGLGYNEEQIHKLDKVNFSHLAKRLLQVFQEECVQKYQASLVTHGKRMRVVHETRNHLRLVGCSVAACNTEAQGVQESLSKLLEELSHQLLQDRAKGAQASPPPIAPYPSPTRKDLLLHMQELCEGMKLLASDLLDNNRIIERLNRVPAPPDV

[7] = molecular target: T7, 340 wild-type kinases (Homo sapiens, UniProt Q15418)
T7 construct: purchased Reaction Biology Europe
T7 sequence (Q15418 whole entry): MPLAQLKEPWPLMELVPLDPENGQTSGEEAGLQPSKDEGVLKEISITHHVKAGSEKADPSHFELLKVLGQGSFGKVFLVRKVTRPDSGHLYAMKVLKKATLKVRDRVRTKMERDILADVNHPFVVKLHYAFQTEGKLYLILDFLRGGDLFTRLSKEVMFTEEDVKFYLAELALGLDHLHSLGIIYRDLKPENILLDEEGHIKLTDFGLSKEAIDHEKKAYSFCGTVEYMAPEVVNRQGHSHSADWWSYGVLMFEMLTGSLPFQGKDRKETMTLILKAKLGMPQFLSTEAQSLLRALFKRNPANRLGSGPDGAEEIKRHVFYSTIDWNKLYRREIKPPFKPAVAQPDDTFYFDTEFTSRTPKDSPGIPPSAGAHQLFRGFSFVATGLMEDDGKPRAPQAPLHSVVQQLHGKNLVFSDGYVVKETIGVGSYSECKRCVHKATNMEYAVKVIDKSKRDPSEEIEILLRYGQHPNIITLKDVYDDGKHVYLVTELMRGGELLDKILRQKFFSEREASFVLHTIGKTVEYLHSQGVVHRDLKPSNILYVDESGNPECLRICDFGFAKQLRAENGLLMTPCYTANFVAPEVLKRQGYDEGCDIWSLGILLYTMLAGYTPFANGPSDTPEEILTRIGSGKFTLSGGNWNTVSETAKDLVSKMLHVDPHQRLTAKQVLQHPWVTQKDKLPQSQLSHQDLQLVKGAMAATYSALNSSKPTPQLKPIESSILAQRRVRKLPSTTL

[8] = molecular target: T8, 340 wild-type kinases (Homo sapiens, UniProt Q16513)
T8 construct: purchased Reaction Biology Europe
T8 sequence (Q16513 whole entry): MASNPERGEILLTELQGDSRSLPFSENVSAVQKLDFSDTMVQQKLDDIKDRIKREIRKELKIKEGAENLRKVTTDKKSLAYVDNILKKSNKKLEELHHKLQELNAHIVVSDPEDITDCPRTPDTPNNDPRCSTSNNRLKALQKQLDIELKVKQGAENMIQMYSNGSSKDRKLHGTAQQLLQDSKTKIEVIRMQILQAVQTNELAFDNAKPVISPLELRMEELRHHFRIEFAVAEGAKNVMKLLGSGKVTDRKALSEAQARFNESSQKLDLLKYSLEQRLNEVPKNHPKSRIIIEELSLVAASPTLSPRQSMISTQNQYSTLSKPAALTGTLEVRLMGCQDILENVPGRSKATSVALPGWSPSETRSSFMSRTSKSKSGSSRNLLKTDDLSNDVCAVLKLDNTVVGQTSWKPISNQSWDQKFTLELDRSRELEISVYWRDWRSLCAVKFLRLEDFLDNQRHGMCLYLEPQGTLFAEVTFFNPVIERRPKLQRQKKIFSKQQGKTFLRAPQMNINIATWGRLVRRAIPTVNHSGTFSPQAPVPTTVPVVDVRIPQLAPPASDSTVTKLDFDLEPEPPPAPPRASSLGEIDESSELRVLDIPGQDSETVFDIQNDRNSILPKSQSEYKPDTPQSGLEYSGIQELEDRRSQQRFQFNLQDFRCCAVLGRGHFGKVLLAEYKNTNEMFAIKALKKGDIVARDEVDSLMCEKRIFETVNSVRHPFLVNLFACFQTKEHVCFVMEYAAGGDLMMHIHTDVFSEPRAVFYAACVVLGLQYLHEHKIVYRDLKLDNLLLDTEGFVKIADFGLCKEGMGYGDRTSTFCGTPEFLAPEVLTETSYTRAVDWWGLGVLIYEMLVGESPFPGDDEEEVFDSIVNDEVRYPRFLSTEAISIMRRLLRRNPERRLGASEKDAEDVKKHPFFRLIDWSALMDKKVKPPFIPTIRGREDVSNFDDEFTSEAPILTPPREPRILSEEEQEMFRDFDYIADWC

[9] = molecular target: T9, 340 wild-type kinases (Homo sapiens, UniProt Q96RG2)
T9 construct: purchased Reaction Biology Europe
T9 sequence (Q96RG2 whole entry): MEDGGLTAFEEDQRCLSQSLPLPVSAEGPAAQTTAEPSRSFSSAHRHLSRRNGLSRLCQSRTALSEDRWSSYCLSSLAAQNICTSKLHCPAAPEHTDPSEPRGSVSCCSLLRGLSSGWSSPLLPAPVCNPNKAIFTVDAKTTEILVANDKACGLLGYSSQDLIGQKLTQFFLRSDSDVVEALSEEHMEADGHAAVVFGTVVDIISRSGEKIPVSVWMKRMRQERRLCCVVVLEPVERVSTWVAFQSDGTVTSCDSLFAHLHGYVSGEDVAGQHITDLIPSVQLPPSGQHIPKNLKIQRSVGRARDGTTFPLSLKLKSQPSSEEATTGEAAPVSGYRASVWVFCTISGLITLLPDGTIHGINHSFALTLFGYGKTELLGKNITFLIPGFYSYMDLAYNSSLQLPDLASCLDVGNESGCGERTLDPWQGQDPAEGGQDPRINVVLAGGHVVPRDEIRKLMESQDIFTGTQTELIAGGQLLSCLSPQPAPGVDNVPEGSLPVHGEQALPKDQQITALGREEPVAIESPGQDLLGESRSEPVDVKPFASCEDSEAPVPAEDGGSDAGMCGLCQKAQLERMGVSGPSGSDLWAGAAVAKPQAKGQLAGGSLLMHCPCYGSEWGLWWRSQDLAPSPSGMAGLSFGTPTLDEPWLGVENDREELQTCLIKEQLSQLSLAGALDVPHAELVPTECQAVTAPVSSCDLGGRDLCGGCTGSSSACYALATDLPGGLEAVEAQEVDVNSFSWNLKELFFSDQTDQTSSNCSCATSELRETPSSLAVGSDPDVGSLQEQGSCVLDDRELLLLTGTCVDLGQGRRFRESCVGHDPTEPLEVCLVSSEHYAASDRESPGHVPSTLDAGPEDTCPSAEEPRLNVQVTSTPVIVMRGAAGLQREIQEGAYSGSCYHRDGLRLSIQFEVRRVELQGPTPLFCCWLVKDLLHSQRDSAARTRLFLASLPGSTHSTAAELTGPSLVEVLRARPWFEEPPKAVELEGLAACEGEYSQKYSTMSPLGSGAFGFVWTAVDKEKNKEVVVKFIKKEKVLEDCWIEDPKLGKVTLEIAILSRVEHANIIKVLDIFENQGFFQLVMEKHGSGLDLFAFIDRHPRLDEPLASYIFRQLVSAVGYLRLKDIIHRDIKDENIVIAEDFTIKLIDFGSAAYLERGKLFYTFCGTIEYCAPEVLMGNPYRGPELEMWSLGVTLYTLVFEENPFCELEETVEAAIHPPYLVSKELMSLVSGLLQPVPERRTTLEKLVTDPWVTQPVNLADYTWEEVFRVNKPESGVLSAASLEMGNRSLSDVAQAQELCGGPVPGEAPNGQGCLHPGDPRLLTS

[10] = molecular target: T10, 340 wild-type kinases (Homo sapiens, UniProt Q9H2X6)
T10 construct: purchased Reaction Biology Europe

[11] = molecular target: T11, 340 wild-type kinases (Homo sapiens, UniProt Q9NQU5)
T11 construct: purchased Reaction Biology Europe

## CNC(=O)c1ccc2c(c1)C(=O)c1ccc(Nc3ccc(F)c(NC(=O)C4CC4)c3)cc1CC2 [Compound 2015]
[1]; 0.2 µM 2015, read-out: CDK1/CycA2 residual activity
  remaining activity at 0.2 µM: 99.4%
[1]; 0.2 µM 2015, read-out: CDK1/CycB1 residual activity
  remaining activity at 0.2 µM: 92.8%
[1]; 0.2 µM 2015, read-out: CDK1/CycE1 residual activity
  remaining activity at 0.2 µM: 100%
[1]; 1 µM 2015, read-out: CDK1/CycA2 residual activity
  remaining activity at 1 µM: 101%
[1]; 1 µM 2015, read-out: CDK1/CycB1 residual activity
  remaining activity at 1 µM: 83.7%
[1]; 1 µM 2015, read-out: CDK1/CycE1 residual activity
  remaining activity at 1 µM: 90.1%
[1]; CDK1/CycA2, 0.2 µM, read-out: residual activity
  remaining activity at 0.2 µM: 99.3%
[1]; CDK1/CycA2, 1 µM, read-out: residual activity
  remaining activity at 1 µM: 101%
[1]; CDK1/CycB1, 0.2 µM, read-out: residual activity
  remaining activity at 0.2 µM: 92.8%
[1]; CDK1/CycB1, 1 µM, read-out: residual activity
  remaining activity at 1 µM: 83.7%
[1]; CDK1/CycE1, 0.2 µM, read-out: residual activity
  remaining activity at 0.2 µM: 100%
[1]; CDK1/CycE1, 1 µM, read-out: residual activity
  remaining activity at 1 µM: 90.1%
[2]; 0.2 µM 2015, read-out: FES residual activity
  remaining activity at 0.2 µM: 105%
[2]; 1 µM 2015, read-out: FES residual activity
  remaining activity at 1 µM: 92.1%
[2]; FES, 0.2 µM, read-out: residual activity
  remaining activity at 0.2 µM: 105%
[2]; FES, 1 µM, read-out: residual activity
  remaining activity at 1 µM: 92.1%
[3]; 0.2 µM 2015, read-out: CLK3 residual activity
  remaining activity at 0.2 µM: 138%
[3]; 1 µM 2015, read-out: CLK3 residual activity
  remaining activity at 1 µM: 133%
[3]; CLK3, 0.2 µM, read-out: residual activity
  remaining activity at 0.2 µM: 138%
[3]; CLK3, 1 µM, read-out: residual activity
  remaining activity at 1 µM: 133%
[4]; 0.2 µM 2015, read-out: CK2alpha1 residual activity
  remaining activity at 0.2 µM: 98.8%
[4]; 1 µM 2015, read-out: CK2alpha1 residual activity
  remaining activity at 1 µM: 95.8%
[4]; CK2alpha1, 0.2 µM, read-out: residual activity
  remaining activity at 0.2 µM: 98.8%
[4]; CK2alpha1, 1 µM, read-out: residual activity
  remaining activity at 1 µM: 95.8%
[5]; 0.2 µM 2015, read-out: CDK6/CycD1 residual activity
  remaining activity at 0.2 µM: 97.6%
[5]; 0.2 µM 2015, read-out: CDK6/CycD2 residual activity
  remaining activity at 0.2 µM: 88.8%
[5]; 0.2 µM 2015, read-out: CDK6/CycD3 residual activity
  remaining activity at 0.2 µM: 93.3%
[5]; 1 µM 2015, read-out: CDK6/CycD1 residual activity
  remaining activity at 1 µM: 93.4%
[5]; 1 µM 2015, read-out: CDK6/CycD2 residual activity
  remaining activity at 1 µM: 91.1%
[5]; 1 µM 2015, read-out: CDK6/CycD3 residual activity
  remaining activity at 1 µM: 86.4%
[5]; CDK6/CycD1, 0.2 µM, read-out: residual activity
  remaining activity at 0.2 µM: 97.6%
[5]; CDK6/CycD1, 1 µM, read-out: residual activity
  remaining activity at 1 µM: 93.4%
[5]; CDK6/CycD2, 0.2 µM, read-out: residual activity
  remaining activity at 0.2 µM: 88.8%
[5]; CDK6/CycD2, 1 µM, read-out: residual activity
  remaining activity at 1 µM: 91.1%
[5]; CDK6/CycD3, 0.2 µM, read-out: residual activity
  remaining activity at 0.2 µM: 93.3%
[5]; CDK6/CycD3, 1 µM, read-out: residual activity
  remaining activity at 1 µM: 86.4%
[6]; 0.2 µM 2015, read-out: IKKepsilon residual activity
  remaining activity at 0.2 µM: 103%
[6]; 1 µM 2015, read-out: IKKepsilon residual activity
  remaining activity at 1 µM: 92.6%
[6]; IKKepsilon, 0.2 µM, read-out: residual activity
  remaining activity at 0.2 µM: 103%
[6]; IKKepsilon, 1 µM, read-out: residual activity
  remaining activity at 1 µM: 92.6%
[7]; 0.2 µM 2015, read-out: RPS6KA1 residual activity
  remaining activity at 0.2 µM: 100%
[7]; 1 µM 2015, read-out: RPS6KA1 residual activity
  remaining activity at 1 µM: 94.3%
[7]; RPS6KA1, 0.2 µM, read-out: residual activity
  remaining activity at 0.2 µM: 100%
[7]; RPS6KA1, 1 µM, read-out: residual activity
  remaining activity at 1 µM: 94.3%
[8]; 0.2 µM 2015, read-out: PRK2 residual activity
  remaining activity at 0.2 µM: 89.2%
[8]; 1 µM 2015, read-out: PRK2 residual activity
  remaining activity at 1 µM: 91.1%
[8]; PRK2, 0.2 µM, read-out: residual activity
  remaining activity at 0.2 µM: 89.2%
[8]; PRK2, 1 µM, read-out: residual activity
  remaining activity at 1 µM: 91.1%
[9]; 0.2 µM 2015, read-out: PASK residual activity
  remaining activity at 0.2 µM: 99.2%
[9]; 1 µM 2015, read-out: PASK residual activity
  remaining activity at 1 µM: 95.1%
[9]; PASK, 0.2 µM, read-out: residual activity
  remaining activity at 0.2 µM: 99.2%
[9]; PASK, 1 µM, read-out: residual activity
  remaining activity at 1 µM: 95.1%
[10]; 0.2 µM 2015, read-out: HIPK2 residual activity
  remaining activity at 0.2 µM: 93.7%
[10]; 1 µM 2015, read-out: HIPK2 residual activity
  remaining activity at 1 µM: 97.9%
[10]; HIPK2, 0.2 µM, read-out: residual activity
  remaining activity at 0.2 µM: 93.7%
[10]; HIPK2, 1 µM, read-out: residual activity
  remaining activity at 1 µM: 97.9%
[11]; 0.2 µM 2015, read-out: PAK6 residual activity
  remaining activity at 0.2 µM: 98%
[11]; 1 µM 2015, read-out: PAK6 residual activity
  remaining activity at 1 µM: 89.3%
[11]; PAK6, 0.2 µM, read-out: residual activity
  remaining activity at 0.2 µM: 98%
[11]; PAK6, 1 µM, read-out: residual activity
  remaining activity at 1 µM: 89.3%
